Measurements taken from patent US7879795B2, “Enhancement of tigecycline potency using efflux pump inhibitors” (Mpex Pharmaceuticals, Inc., priority 2004, dated 2011).

Experiments:
[1] = Serum levels of compound 3 after administration of acylated forms in rats; format: in vivo, rat; conditions: compound 5 8.4 mg/kg injected, compound 43 10 mg/kg two-hour infusion
Procedure: Rats were injected with compound 5 (8.4 mg/kg) and serum levels of the parent compound 3 were evaluated after extraction. The serum levels as a function of time are depicted in FIG. 16.
Rats were infused for two hours with compound 43 at 10 mg/kg and serum levels of the parent compound 3 were evaluated after extraction. FIG. 17 depicts the serum levels of compound 3 as a function of time.

[2] = test system: P. aeruginosa, PAM1723, overexpressing the MexAB-OprM efflux pump; experiment: Levofloxacin potentiation checkerboard assay (broth microdilution); format: cell-based; conditions: in words
Procedure: Stock solution was stored at −80° C.
The checkerboard assay was performed in microtiter plates. […] EPIs were diluted in the y axis, each row containing an equal concentration of an EPI. The result of these manipulations was that each well of the microtiter plate contains a unique combination of concentrations of the two agents. The assay was performed in MHB with a final bacterial inoculum of 5×10^5 CFU/ml (from an early-log phase culture). Microtiter plates were incubated during 20 h at 35° C. and were read using a microtiterplate reader (Molecular Devices) at 650 nm as well as visual observation using a microtiter plate-reading mirror.

[3] = test system: strain 29A2 of P. aeruginosa overexpressing MexAB-OprM efflux pump; experiment: Neutropenic mice lung model of PA infection; format: in vivo; conditions: levofloxacin 30 mg/kg SQ plus EPI IP
Procedure: Neutropenia was induced by cyclophosphamide 100 mg/kg IP on days 3 and 1 prior to infection. The strain 29A2 of P. aeruginosa overexpressing MexAB-OprM efflux pump was grown overnight in Mueller-Hinton Broth (MHB). The next day overnight culture was diluted in fresh MHB and was allowed to re-grow to ˜10^8 CFU/mL (OD600˜0.3). The culture was spun down, washed twice with phosphate buffered saline (PBS) and re-suspended in PBS to ˜4×10^7 CFU/mL. 50 μl of inoculum was used for intratracheal instillation of mice, which were anesthetized with sevoflourane/oxygen. […] Four mice from each treatment group were euthanized at various times after the start of treatment. The lungs were removed aseptically, homogenized in saline, and immediately plated to determine bacterial load (CFU/ml) in infected lungs. P. aeruginosa is plotted as a function of time in FIG. 20.

[4] = Acute toxicity, minimal lethal dose after IV bolus in mice; format: in vivo, mouse; conditions: IV bolus into tail vein, lethal for at least one of three mice
Procedure: Acute toxicity was measured as minimal lethal dose (MLD). MLD is defined as a minimal concentration of a compound that has lethal effect for at least one mouse from the group of three mice after IV bolus injection into the mouse tail vein.

[5] = in vivo; cited from earlier work
[6] = test system: P. aeruginosa strain PAM1723 overexpressing MexAB-OprM efflux pump; experiment: Neutropenic mice thigh model of PA infection; format: in vivo; conditions: levofloxacin 30 mg/kg SQ, EPI 60 mg/kg IP, 2 hours post-infection
Procedure: Efficacy of the EPIs was evaluated in a Neutropenic Mice Thigh Model of P. aeruginosa Infection. Neutropenia was induced by cyclophosphamide 100 mg/kg IP on days 3 and 1 prior to infection. P. aeruginosa strain PAM1723 overexpressing MexAB-OprM efflux pump was grown overnight in Mueller-Hinton Broth (MHB). The next day, the overnight culture was diluted in fresh MHB and was allowed to re-grow to ˜10^8 CFU/mL (OD600˜0.3). The culture was spun down, washed twice with phosphate buffered saline (PBS) and re-suspend in PBS to ˜4×10^6 CFU/mL. Next, this culture was mixed 1:1 with 14% hog-gastric mucin in PBS to give a final inoculum of 2×10^6 CFU/mL. Infection was initiated with injection of 0.1 mL of inoculum (˜2×10^5 CFU/thigh) directly into both thighs of each mouse. Two mice from each treatment group were euthanized at various times after the start of treatment. The thighs were removed aseptically, homogenized in saline, and immediately plated to determine bacterial load (CFU/ml). Treatment was initiated 2 hours post infection.

[7] = test system: PAM1723; conditions: summary of Table 4; in words
Procedure: Stability in rat and human serum was also evaluated using a bioassay. 320 μg/ml of the test compound was treated with 50% serum for 4 hours.
Bioassays as described in Example 62 and Example 65 were used to evaluate the stability of various compounds in serum and rabbit kidney homogenates.

[8] = Tissue levels in rat six-hour after 8.4 mg/kg IV bolus; format: in vivo; conditions: in words
Procedure: Tissue levels of compounds 1, 2, 3 and 4 were evaluated in kidney, liver and lung six-hour after 8.4 mg/kg IV bolus administration. FIG. 13 depicts the levels as a function of time.
Compound 67, which is the expected metabolite of proteolytic intracellular degradation of compound 3, was detected in rat tissues after IV infusion, confirming the tissue-specific degradation of compound 3 (Tables 9A, B).

[9] = In vitro stability in rat serum and tissue homogenates (LC/MS/MS); format: in vitro ADME; conditions: rat kidney homogenates, as a function of time
Procedure: To test the stability of the compounds in vitro, samples were prepared and analyzed by LC/MS/MS according to the following procedure.
Homogenization: A chunk of fresh tissue was weighed and mixed with saline at 1:1 ratio (w/v) in a 12×75 mm polypropylene round bottom tube. The mixture was homogenized with a Polytron homogenizer (on ice, 3×10 seconds with 10 second intervals at the setting of 7).
Incubation and TCA-precipitation: An appropriate amount of a tissue homogenate was pre-warmed at 37° C. for 2 minutes in an Eppendorf tube. The compound to be tested was added to the tube to a final concentration of 2 μg/ml, mixed, and a 60 μl aliquot was immediately taken (as 0 hour sample) and mixed with 120 μl of 4% TCA (trichloroacetic acid) in an Eppendorf tube. The temperature of the tube containing the rest of the tissue sample was returned to 37° C. for incubation. Later, samples were taken as scheduled and mixed with TCA as described above. Plasma and lavage samples were directly incubated with the compounds without addition of saline and homogenization.
LC/MS/MS sample vial preparation: TCA-precipitated sample tubes were vortexed for 30 seconds, centrifuged in a microfuge at top speed (13.2 k rpm) for 5 minutes. The supernatant was collected. The pH was neutralized to about 3.5 with ammonium acetate buffer. The sample (45 μl) was transferred to a glass LC/MS/MS vial (Kimble, 11 mm, 1.5 ml) and 5 μl of an internal standard was added to a final concentration of 500 ng/ml. LC/MS/MS analysis was performed in Chemistry Department of San Diego State University.
LC/MS/MS protocol: Thermo-Finnigan TSQ Quantum triple sector mass spectrometer with electrospray (ESI) ionization was used to analyze the samples. The operation conditions were: Mobile phase of pH 3.00 water/formic acid: acetonitrile-methanol (45%:5%:50% by volume); Thermo-Keystone Betabasic C-18 column (2.1 mm×50 mm) operated at 0.100 mL/min.
Many proteases responsible for degrading EPI compounds are located in […]. Lysozymes typically have an acidic pH (about 4.8-5), whereas the pH in tissue homogenates that were prepared was higher (kidney, pH 6.8; liver, pH 6.6; and lung, pH 7.5). To test the effect of tissue homogenates closer to physiological conditions, the pH was lowered to about 6 by adding acetic acid to the tissue homogenates and compound stability was tested. FIG. 2 depicts the stability of compounds 1 and 3 at different pH. […] The pH-dependent degradation of compound 3 was especially evident in kidney homogenates.
FIG. 4 is a bar graph depicting the stability of compound 3 in the supernatant and pellet of kidney tissue homogenates.

[10] = Stability in human kidney tissue preparations; format: in vitro ADME; conditions: in words
Description: The pattern of in vitro stability of compound 3 (stable in serum but unstable in tissues) observed in rodents was also reproduced using human kidney tissues or serum. FIG. 7 compares the in vitro stability of compounds 1 and 3 in human kidney tissue preparations.
FIG. 8 depicts formation of the metabolite, compound 67, in human kidney tissue. Concomitant with the disappearance of compound 3, generation of the expected metabolite of the presumed intralysosomal degradation, compound 67, was detected using human kidney.

Row | Structure (SMILES) | metabolism in serum to produce compound 3 [1] | in vitro levofloxacin potentiating activity [2] | MLD (minimal lethal dose) [4] | further results
1 | NCCC[C@H](NC(=O)C[C@H](N)C(=O)O)C(=O)N[C@H](CCc1ccccc1)C(=O)Nc1cnc2ccccc2c1 [Compound 5, 2-(S)-Amino-N-{4-amino-1-(S)-[3-phenyl-1-(R)-(quinolin-3-ylcarbamoyl)-propylcarbamoyl]-butyl}-succinamic acid] | readily metabolized | devoid of levofloxacin potentiating activity | 75 mg/kg | bacterial load in infected lungs, EPI with levofloxacin [3]: efficacious
2 | N=C(N)c1ccc(OCCCCCOc2ccc(C(=N)N)cc2)cc1 [pentamidine] |  |  |  | incidence of kidney toxicity [5]: above 75%
3 | N[C@@H](CC(=O)O)C(=O)NCCC[C@H](NC(=O)[C@@H](N)CC(=O)O)C(=O)N[C@H](CCc1ccccc1)C(=O)Nc1cnc2ccccc2c1 [Compound 43, 3-Amino-(S)—N-{4-(S)-(2-(3)-(S)-amino-3-carboxy-propionylamino)-4-[3-phenyl-1-(R)-(quinolin-3-ylcarbamoyl)-propylcarbamoyl]-butyl}-succinamic acid] | readily metabolized | did not have in vitro levofloxacin potentiating activity | 150 mg/kg | bacterial load in thighs, EPI with levofloxacin versus levofloxacin alone [6]: potentiated levofloxacin in vivo
4 | N[C@@H](CC(=O)O)C(=O)NCCC[C@H](N)C(=O)N[C@H](CCc1ccccc1)C(=O)Nc1cnc2ccccc2c1 [Compound 34, 3-(S)-Amino-N-{4-(S)-amino-4-[3-phenyl-1-(R)-(quinolin-3-ylcarbamoyl)-propylcarbamoyl]-butyl}-succinamic acid] |  |  | 50 mg/kg | stability in rat serum [7]: unstable in rat serum
5 | NC(CCc1ccccc1)C(=O)Nc1cnc2ccccc2c1 (stereo in doubt) [Compound 67, 2-(S)-Amino-4-phenyl-N-quinolin-3-yl-butyramide] |  |  |  | detection of metabolite 67 in rat tissues after IV administration of compound 3 [8]: detected; level of degradation product 67 formed from compound 3 [9]: increased; generation of metabolite 67 from compound 3 in human kidney [10]: detected
